Data reported in US20250145640A1, “2,2-DIFLUORO-5H-[1,3]DIOXOLO[4,5-F]ISOINDOL-7-ONE DERIVATIVES AS PESTICIDES” (SYNGENTA CROP PROTECTION AG, priority 2021, published 2025).

Columns and labels:
Assay type in all cases: in vivo
[1] = tested on: Myzus persicae (Green peach aphid); experiment: Example B4: Activity against Myzus persicae, feeding/contact activity on sunflower leaf discs; details: foliar, 144 h, application rate 200 ppm, aphid population of mixed ages, assessed 6 days after infestation
Procedure: Example B4: Activity against Myzus persicae (Green peach aphid) Feeding/Contact activity Sunflower leaf discs were placed onto agar in a 24-well microtiter plate and sprayed with aqueous test solutions prepared from 10′000 ppm DMSO stock solutions. After drying, the leaf discs were infested with an aphid population of mixed ages. The samples were assessed for mortality 6 days after infestation.

[2] = tested on: Plutella xylostella (Diamond Back Moth); experiment: Example B5: Activity against Plutella xylostella, artificial diet in 24-well microtiter plates; details: 192 h, application rate 200 ppm, eggs, assessed 8 days after infestation, read-out: effect in at least one of the two categories (mortality or growth inhibition)
Procedure: Example B5: Activity Against Plutella xylostella (Diamond Back Moth)
24-well microtiter plates with artificial diet were treated with aqueous test solutions prepared from 10′000 ppm DMSO stock solutions by pipetting. After drying, Plutella eggs were pipetted through a plastic stencil onto a gel blotting paper and the plate was closed with it. The samples were assessed for mortality and growth inhibition in comparison to untreated samples 8 days after infestation.

[3] = tested on: Diabrotica Balteata (Corn Root Worm); experiment: Example B2: Activity against Diabrotica balteata, sprayed maize sprouts on agar; details: 96 h, application rate 200 ppm, L2 larvae, assessed 4 days after infestation, read-out: effect in at least one of the two categories (mortality or growth inhibition)
Procedure: Example B2: Activity Against Diabrotica Balteata (Corn Root Worm)
Maize sprouts placed onto an agar layer in 24-well microtiter plates were treated with aqueous test solutions prepared from 10′000 ppm DMSO stock solutions by spraying. After drying, the plates were infested with L2 larvae (6 to 10 per well). The samples were assessed for mortality and growth inhibition in comparison to untreated samples 4 days after infestation.

[4] = tested on: Euschistus heros (Neotropical Brown Stink Bug); experiment: Example B3: Activity against Euschistus heros, sprayed soybean leaves on agar; details: 120 h, application rate 200 ppm, N2 nymphs, assessed 5 days after infestation, read-out: effect in at least one of the two categories (mortality or growth inhibition)
Procedure: Example B3: Activity Against Euschistus heros (Neotropical Brown Stink Bug)
Soybean leaves on agar in 24-well microtiter plates were sprayed with aqueous test solutions prepared from 10′000 ppm DMSO stock solutions. After drying the leaves were infested with N2 nymphs. The samples were assessed for mortality and growth inhibition in comparison to untreated samples 5 days after infestation.

[5] = tested on: Spodoptera littoralis (Egyptian Cotton Leaf Worm); experiment: Example B6: Activity against Spodoptera littoralis, sprayed cotton leaf discs on agar; details: foliar, 72 h, application rate 200 ppm, L1 larvae, assessed 3 days after infestation, read-out: control (at least one of mortality, anti-feedant effect, growth inhibition)
Procedure: Example B6: Activity Against Spodoptera littoralis (Egyptian Cotton Leaf Worm)
Cotton leaf discs were placed onto agar in 24-well microtiter plates and sprayed with aqueous test solutions prepared from 10′000 ppm DMSO stock solutions. After drying the leaf discs were infested with five L1 larvae. The samples were assessed for mortality, anti-feeding effect, and growth inhibition in comparison to untreated samples 3 days after infestation. Control of Spodoptera littoralis by a test sample is given when at least one of the categories mortality, anti-feedant effect, and growth inhibition is higher than the untreated sample.

[6] = tested on: Chilo suppressalis (Striped Rice Stemborer); experiment: Example B1: Activity against Chilo suppressalis, artificial diet in 24-well microtiter plates; details: 144 h, application rate 200 ppm, L2 larvae, assessed 6 days after infestation, read-out: control (at least one of mortality, anti-feedant effect, growth inhibition)
Procedure: Example B1: Activity Against Chilo suppressalis (Striped Rice Stemborer)
24-well microtiter plates with artificial diet were treated with aqueous test solutions prepared from 10′000 ppm DMSO stock solutions by pipetting. After drying, the plates were infested with L2 larvae (6-8 per well). The samples were assessed for mortality, anti-feeding effect, and growth inhibition in comparison to untreated samples 6 days after infestation. Control of Chilo suppressalis by a test sample is given when at least one of the categories mortality, anti-feedant effect, and growth inhibition is higher than the untreated sample.

CCS(=O)(=O)c1cc2ccccc2nc1N1Cc2cc3c(cc2C1=O)OC(F)(F)O3 [P2, 6-(3-ethylsulfonyl-2-quinolyl)-2,2-difluoro-5H-[1,3]dioxolo[4,5-f]isoindol-7-one]
≥ 80%: mortality at 200 ppm [1] | percent effect (mortality or growth inhibition) at 200 ppm [2] | percent effect (mortality or growth inhibition) at 200 ppm [3] | percent effect (mortality or growth inhibition) at 200 ppm [4] | percent control (mortality, anti-feedant effect or growth inhibition) at 200 ppm [5]

CCS(=O)(=O)c1c(N2Cc3cc4c(cc3C2=O)OC(F)(F)O4)nn2cc(C3CC3)ccc12 [P4, 6-(6-cyclopropyl-3-ethylsulfonyl-pyrazolo[1,5-a]pyridin-2-yl)-2,2-difluoro-5H-[1,3]dioxolo[4,5-f]isoindol-7-one]
≥ 80%: mortality at 200 ppm [1] | control (mortality, anti-feedant effect or growth inhibition) at 200 ppm [6] | percent effect (mortality or growth inhibition) at 200 ppm [2] | percent effect (mortality or growth inhibition) at 200 ppm [3] | percent effect (mortality or growth inhibition) at 200 ppm [4] | percent control (mortality, anti-feedant effect or growth inhibition) at 200 ppm [5]

CCS(=O)(=O)c1c(N2Cc3cc4c(cc3C2=O)OC(F)(F)O4)nn2ccc(Cl)cc12 [P15, 6-(5-chloro-3-ethylsulfonyl-pyrazolo[1,5-a]pyridin-2-yl)-2,2-difluoro-5H-[1,3]dioxolo[4,5-f]isoindol-7-one]
≥ 80%: control (mortality, anti-feedant effect or growth inhibition) at 200 ppm [6] | percent effect (mortality or growth inhibition) at 200 ppm [2] | percent effect (mortality or growth inhibition) at 200 ppm [3] | percent effect (mortality or growth inhibition) at 200 ppm [4] | percent control (mortality, anti-feedant effect or growth inhibition) at 200 ppm [5]
